Assay results: patent publication US12605397B2, “Deoxy-cytidine or uridine derivatives for use in cancer therapies” (HEMISPHERIAN AS, priority 2019, dated 2026)

Assays:
U937 cells = test: Survival assay (MTT), U937; format: cell-based, human; conditions: Homo sapiens, U-937
Protocol: (§1) Cells were passed between 70 and 90% confluence.
(§2) Cells were incubated with the drugs for 72 hours.

DIPG007 cells = test: Survival assay (MTT), DIPG007; format: cell-based, human; conditions: Homo sapiens, DIPG007, Glioma, Grade IV, 72 hours
Protocol: as §1, §2

MCF-7 cells = test: Survival assay (MTT), MCF-7; format: cell-based, human; conditions: Homo sapiens, MCF7
Protocol: as §1, §2

SF188 cells = test: Survival assay (MTT), SF188; format: cell-based, human; conditions: Homo sapiens, SF-188, SF188, Glioma, Grade IV, 72 hours
Protocol: as §1, §2

Arpe19 cells = test: Survival assay (MTT), Arpe19; format: cell-based, human; conditions: Homo sapiens
Protocol: as §2
(§3) The present inventors further investigated the extent to which these compounds kill normal human cells; low cytotoxicity against normal human cells is advantageous property for anti-cancer agents. The cytotoxicity of these compounds in various normal human cell lines was therefore investigated (Table 3). Cells were grown and the survival assay was performed as described above (Materials and Methods).

HeLa cells = test: Survival assay (MTT), HeLa; conditions: for IC50: Homo sapiens, HeLa; for cytotoxicity to HeLa cells (cell survival): three days of treatment, MTT, up to 100 μM
Protocol: (§5) Cell lines not mentioned above were grown in DMEM (Sigma, Cat.Nr. D6429) supplemented with 10% Fetal Bovine Serum and 100 U/ml penicillin 100 U/ml streptomycin. All cells were maintained in a 5% CO2, humidified, water-jacketed incubator at 37° C. Cells were passed between 70 and 90% confluence.
(§6) In a 96-well plate, 4000 cells in 100 μl of corresponding medium were seeded. The following day, drugs, diluted in DMSO, were added in 8 concentrations in triplicate. Drugs were added as a 4-fold dilution series starting from 100 μM. Cells were incubated with the drugs for 72 hours. Cell proliferation was assessed by MTT assay according to the manufacturer's protocol (ATCC, Cat. Nr. 30-1010K). Cell survival was normalized to the survival of cells treated with DMSO only. Experiment was performed three times, data represent mean of nine wells±SEM.
HeLa cells, grown as described above (Materials and Methods), were treated with 5-hydroxymethyl-2′-deoxycytidine and 5-formyl-2′-deoxycytidine. After three days of treatment with these compounds, cell survival was assessed as described above (Materials and Methods).
After three days of treatment with these compounds at a concentration of 100, 25, 6.25, 1.56, 0.39, 0.1, 0.02, or 0.006 μM, cell survival was assessed by MTT assay as described above (Materials and Methods).

U3017 cells = test: Survival assay (MTT), U3017; format: cell-based, human; conditions: Homo sapiens, U3017, Glioma, Grade IV, 72 hours
Protocol: as §1, §2

U3013 cells = test: Survival assay (MTT), U3013; format: cell-based, human; conditions: Homo sapiens, U3013, Glioma, Grade IV, 72 hours
Protocol: as §1, §2

A375 cells = test: Survival assay (MTT), A375; format: cell-based, human; conditions: Homo sapiens, A-375
Protocol: as §1, §2

A-498 cells = test: Survival assay (MTT), A-498; format: cell-based, human; conditions: Homo sapiens
Protocol: as §1, §2

SK-OV-3 cells = test: Survival assay (MTT), SK-OV-3; format: cell-based, human; conditions: Homo sapiens
Protocol: as §1, §2

U2OS cells = test: Survival assay (MTT), U2OS; format: cell-based, human; conditions: Homo sapiens
Protocol: as §1, §2

A549 cells = test: Survival assay (MTT), A549; format: cell-based, human; conditions: Homo sapiens
Protocol: as §1, §2

U87-MG cells = test: Survival assay (MTT), U87-MG; conditions: for IC50: U87-MG; for cytotoxicity to U87-MG cells (cell survival): up to 100 μM; for rescue of cytotoxicity by the addition of thymidine: U87-MG cells; for cytotoxic effect in combination with Temozolomide: temozolomide resistant U87-MG cells
Protocol: as §5, §6
In a 96-well plate, 4000 cells in 100 μl of corresponding medium were seeded. The following day, drugs, diluted in DMSO, were added in triplicate at a concentration of 100, 25, 6.25, 1.56, 0.39, 0.1, 0.02, or 0.006 ┘M. Cells were incubated with the drugs for 72 hours. Cell proliferation was assessed by MTT assay according to the manufacturer's protocol (ATCC, Cat. Nr. 30-1010K). Cell survival was normalized to the survival of cells treated with DMSO only. Experiment was performed three times, data represent mean of nine wells±SEM.

G7 cells = test: Survival assay (MTT), G7; format: cell-based, human; conditions: Homo sapiens, G7, Glioma, Grade IV, 72 hours
Protocol: (§4) Primary glioma neural stem (GNS) cells (G7, G14, G144, G166) were cultured on poly-D-lysine (Merck Millipore, Cat. Nr. A-003-E) and laminin (R&D Systems, Cat.Nr. 3446-005-01) coated plates in neural stem cell medium (50% DMEM-F12 (Thermofisher, Cat. Nr. 21041025), 50% neurobasal medium (Thermofisher, Cat. Nr. 10888-022), N2 (Life Technologies, Cat. Nr. A-003-E) and B27 supplements (Life Technologies, Cat.Nr. 12587010), 1 mM sodium pyruvate (Life Technologies, Cat.Nr. 11360-039), 2 mM glutamax (Life Technologies, Cat. Nr. 35050038), 1 mM HEPES (Fisher Scientific, Cat. Nr. BP299-1), 0.1 mM β-mercaptoethanol (Life Technologies, Cat. Nr. 31350010), 1× nonessential amino acids (Life Technologies, Cat. Nr. 11140-035), 0.006% bovine serum albumin (Sigma, Cat. Nr. A8577-10ML), 4 μg/ml heparin (Sigma, Cat. Nr. H3149-25KU), 100 U/ml penicillin, 100 μg/ml streptomycin, 20 ng/ml hEGF (R&D Systems, Cat. Nr. 236-EG-200), 10 ng/ml bFGF (Peprotech, Cat. Nr. 100-18B).
as §2

G166 cells = test: Survival assay (MTT), G166; format: cell-based, human; conditions: Homo sapiens, G166, Glioma, Grade IV, 72 hours
Protocol: as §4, §2

HL-60 cells = test: Survival assay (MTT), HL-60; format: cell-based, human; conditions: Homo sapiens
Protocol: as §1, §2

CB152 cells = test: Survival assay (MTT), CB152; format: cell-based, human; conditions: Homo sapiens, CB152, Glioma, Grade IV, 72 hours
Protocol: as §1, §2

MRC5 cells = test: Survival assay (MTT), MRC5; format: cell-based, human; conditions: Homo sapiens
Protocol: as §1, §2, §3

HaCat cells = test: Survival assay (MTT), HaCat; format: cell-based, human; conditions: Homo sapiens, Normal, Keratinocytes, 72 hours
Protocol: as §1, §2, §3

NCI-N87 cells = test: Survival assay (MTT), NCI-N87; format: cell-based, human; conditions: Homo sapiens
Protocol: as §1, §2

[1] = MCF-7, Epithelial Adenocarcinoma (Breast), 72 hours, MTT
[2] = ARPE-19, 72 h, Arpe19, Normal, Ectoderm, 72 hours, MTT
[3] = A375, Malignant Melanoma, 72 hours, MTT
[4] = A498, 72 h, A-498, Kidney Carcinoma, 72 hours, MTT
[5] = SK-OV-3, Ovarian Adenocarcinoma, 72 hours, MTT
[6] = Bone Osteoscarcoma, 72 hours, MTT
[7] = A549, 72 h, A549, Lung Carcinoma, 72 hours, MTT
[8] = Homo sapiens, U-87 MG, 72 h, Glioma, Grade IV, MTT
[9] = HL-60, Acute Promyelocytic Leukemia, 72 hours, MTT
[10] = MRC5, 72 h, MRC5, Normal, Lung, 72 hours, MTT
[11] = NCI-N87, Gastric Carcinoma, 72 hours, MTT
[12] = U937, Tables 6 and 7, unit inferred
[13] = MCF-7, Tables 6 and 7, unit inferred
[14] = ARPE-19, ARPE19, Tables 6 and 7, unit inferred
[15] = A375, Tables 6 and 7, unit inferred
[16] = A498, A-498, Tables 6 and 7, unit inferred
[17] = SK-OV-3, Tables 6 and 7, unit inferred
[18] = A549, A549, Tables 6 and 7, unit inferred
[19] = Homo sapiens, U-87 MG, Tables 6 and 7, unit inferred
[20] = HL-60, Tables 6 and 7, unit inferred
[21] = MRC5, MRC5, Tables 6 and 7, unit inferred
[22] = NCI-N87, Tables 6 and 7, unit inferred
[23] = 72 hours, MTT, listed as 5-hydroxymethyl-2′-deoxycytidine

Compound Cn1nnc2c(C(N)=O)ncn2c1=O [Temozolomide, 4-methyl-5-oxo-2,3,4,6,8-pentazabicyclo[4.3.0]nona-2,7,9-triene-9-carboxamide, reference compound] has an IC50 (U937 cells; U937, Lymophoma, 72 hours, MTT) of 13.1 µM, an IC50 (DIPG007 cells) greater than 100 µM and an IC50 (MCF-7 cells; [1]) greater than 25 µM. It also gave an IC50 (SF188 cells) greater than 100 µM, an IC50 (Arpe19 cells; [2]) greater than 25 µM and an IC50 (HeLa cells; 72 h) greater than 25 µM. The IC50 (U3017 cells) was greater than 100 µM, the IC50 (U3013 cells) was greater than 100 µM and the IC50 (A375 cells; [3]) was greater than 25 µM. It also gave an IC50 (A-498 cells; [4]) greater than 25 µM, an IC50 (SK-OV-3 cells; [5]) greater than 25 µM and an IC50 (U2OS cells; [6]) greater than 25 µM. It also gave an IC50 (A549 cells; [7]) of 1.02 µM, an IC50 (U87-MG cells; [8]) greater than 25 µM and an IC50 (G7 cells) of 6.18 µM. For the same compound, the IC50 (G166 cells) was greater than 100 µM, the IC50 (HL-60 cells; [9]) was greater than 25 µM and the IC50 (CB152 cells) was greater than 100 µM. It also gave an IC50 (MRC5 cells; [10]) greater than 25 µM, an IC50 (HaCat cells) greater than 25 µM and an IC50 (NCI-N87 cells; [11]) greater than 25 µM.
With Nc1nc(=O)n([C@H]2C[C@H](O)[C@@H](CO)O2)cc1C=O [2d5fC, 5-formyl-2′-deoxycytidine] the IC50 (U937 cells; U937, Lymophoma, 72 hours, MTT) was 0.954 µM, the IC50 (U937 cells; [12]) was 0.954 µM and the IC50 (DIPG007 cells) was greater than 100 µM. For the same compound, the IC50 (MCF-7 cells; [1]) was 0.866 µM, the IC50 (MCF-7 cells; [13]) was 0.866 µM and the IC50 (SF188 cells) was 28.2 µM. The IC50 (Arpe19 cells; [2]) was greater than 25 µM, the IC50 (Arpe19 cells; [14]) was no less than 25 µM and the IC50 (HeLa cells) was 0.76 µM. The IC50 (HeLa cells; 72 h) was 0.76 µM, the “cytotoxicity to HeLa cells (cell survival)” value (HeLa cells) was “markedly greater cytotoxic effect” and the IC50 (U3017 cells) was greater than 100 µM. For the same compound, the IC50 (U3013 cells) was greater than 100 µM, the IC50 (A375 cells; [3]) was 3.19 µM and the IC50 (A375 cells; [15]) was 3.19 µM. For the same compound, the IC50 (A-498 cells; [4]) was greater than 25 µM, the IC50 (A-498 cells; [16]) was no less than 25 µM and the IC50 (SK-OV-3 cells; [5]) was 9.69 µM. The IC50 (SK-OV-3 cells; [17]) was 9.69 µM, the IC50 (U2OS cells; [6]) was 8.69 µM and the IC50 (U2OS cells; Tables 6 and 7, unit inferred) was 8.69 µM. The IC50 (A549 cells; [7]) was greater than 25 µM, the IC50 (A549 cells; [18]) was no less than 25 µM and the “cytotoxicity to U87-MG cells (cell survival)” value (shortened to “cytotoxicity to U87-MG cells”) (U87-MG cells; 72 hours, MTT) was “markedly more cytotoxic”. The IC50 (U87-MG cells; [8]) was 0.334 µM, the IC50 (U87-MG cells; [19]) was 0.334 µM and the “rescue of cytotoxicity by the addition of thymidine” value (U87-MG cells; 72 hours, MTT) was “not rescued”. For the same compound, the “cytotoxic effect in combination with Temozolomide” value (from here on “cytotoxic effect in combination”) (U87-MG cells; 72 hours, MTT, listed as 5-formyl-2′-deoxycytidine) was “synergistically”, the “cytotoxic effect in combination” value (U87-MG cells; 72 hours, MTT, listed as d5fC) was “more effective” and the IC50 (G7 cells) was 19.2 µM. The IC50 (G166 cells) was greater than 100 µM, the IC50 (HL-60 cells; [9]) was 6.26 µM and the IC50 (HL-60 cells; [20]) was 6.26 µM. For the same compound, the IC50 (CB152 cells) was greater than 100 µM, the IC50 (MRC5 cells; [10]) was greater than 25 µM and the IC50 (MRC5 cells; [21]) was no less than 25 µM. For the same compound, the IC50 (HaCat cells) was 0.102 µM, the IC50 (NCI-N87 cells; [11]) was 0.806 µM and the IC50 (NCI-N87 cells; [22]) was 0.806 µM.
In the case of Nc1nc(=O)n([C@H]2C[C@H](O)[C@@H](CO)O2)cc1CO [2d5hmC, 5-hydroxymethyl-2′-deoxycytidine], the IC50 (U937 cells; U937, Lymophoma, 72 hours, MTT) is reported as greater than 25 µM, the IC50 (U937 cells; [12]) is reported as no less than 25 µM and the IC50 (DIPG007 cells) is reported as greater than 100 µM. The IC50 (MCF-7 cells; [1]) was greater than 25 µM, the IC50 (MCF-7 cells; [13]) was no less than 25 µM and the IC50 (SF188 cells) was 8.97 µM. The IC50 (Arpe19 cells; [2]) was greater than 25 µM, the IC50 (Arpe19 cells; [14]) was no less than 25 µM and the IC50 (HeLa cells) was no less than 25 µM. The IC50 (HeLa cells; 72 h) was greater than 25 µM, the “cytotoxicity to HeLa cells (cell survival)” value (HeLa cells) was “did not differ from DMSO treated cells” and the IC50 (U3017 cells) was 14.1 µM. It also gave an IC50 (U3013 cells) greater than 100 µM, an IC50 (A375 cells; [3]) greater than 25 µM and an IC50 (A375 cells; [15]) of no less than 25 µM. It also gave an IC50 (A-498 cells; [4]) greater than 25 µM, an IC50 (A-498 cells; [16]) of no less than 25 µM and an IC50 (SK-OV-3 cells; [5]) greater than 25 µM. The IC50 (SK-OV-3 cells; [17]) was no less than 25 µM, the IC50 (U2OS cells; [6]) was greater than 25 µM and the IC50 (U2OS cells; Tables 6 and 7, unit inferred) was no less than 25 µM. For the same compound, the IC50 (A549 cells; [7]) was greater than 25 µM, the IC50 (A549 cells; [18]) was no less than 25 µM and the “cytotoxicity to U87-MG cells” value (U87-MG cells; [23]) was “cytotoxic”. The “cytotoxicity to U87-MG cells” value (U87-MG cells; 72 hours, MTT, listed as d5hmC) was “markedly more cytotoxic”, the IC50 (U87-MG cells; [19]) was 3.03 µM and the “rescue of cytotoxicity by the addition of thymidine” value (U87-MG cells; 72 hours, MTT) was “not rescued”. The IC50 (U87-MG cells; Glioma, Grade IV, 72 hours, MTT) was greater than 0.334 µM, the “cytotoxic effect in combination” value (U87-MG cells; [23]) was “synergistically” and the “cytotoxic effect in combination” value (U87-MG cells; 72 hours, MTT, listed as d5hmC) was “more effective”. It also gave an IC50 (G7 cells) of 11.9 µM, an IC50 (G166 cells) greater than 100 µM and an IC50 (HL-60 cells; [9]) greater than 25 µM. The IC50 (HL-60 cells; [20]) was no less than 25 µM, the IC50 (CB152 cells) was greater than 100 µM and the IC50 (MRC5 cells; [10]) was greater than 25 µM. The IC50 (MRC5 cells; [21]) was no less than 25 µM, the IC50 (HaCat cells) was greater than 25 µM and the IC50 (NCI-N87 cells; [11]) was greater than 25 µM. The IC50 (NCI-N87 cells; [22]) was no less than 25 µM.
